Data taken from PMC10745061 (Marine Drugs, 2023).
Read-outs that look alike come from different tables or passages of the source. Where a SMILES comes first, the peptide text is derived from it. Bridges are numbered along the chain shown (N, C = ends).

Assays:
[1] = tested on: human red blood cells (hRBCs); assay: Hemolysis, hemoglobin release assay; type: cell-based; settings: hemoglobin release assay, 2 h incubation, two independent donors
Description: Figure 3 Biological activity of the peptides towards human cells. (A) Hemolytic effect on human red blood cells (hRBCs) after 2 h incubation (the hemoglobin release assay). (B) Cytotoxicity towards transformed human embryonic kidney cells (HEK293T) after 16 h incubation (the resazurin assay).
The hemolytic activity of the peptides was tested against the fresh suspension of human red blood cells (hRBC) using the hemoglobin release assay, as described previously. Two experiments were performed with hRBC from blood samples of independent donors. The quantitative data are represented as average means with standard deviations. The cytotoxic effect of the peptides was tested on transformed human embryonic kidney cells (HEK293T) using the resazurin assay. The technique is based on the ability of live cell dehydrogenases to reduce a blue resazurin to pink and fluorescent resorufin. A total of 10^4 cells per well in Dulbecco’s modified Eagle’s medium (DMEM/F12) supplemented with 10% FBS were placed into 96-well plates for 24 h in the CO2-incubator (5% CO2, 37 °C). […] Fluorescence of the formed resorufin was measured with the microplate reader AF2200 (Eppendorf, Germany) using the following channel: λExc = 535 nm, λEm = 595 nm. The fluorescence signal in the wells containing cells cultured without the peptides was assumed to represent 100% cell viability. […]

[2] = tested on: E. coli K12 SBS 1936 biofilm; assay: Effect on established biofilm, MTT assay; type: cell-based, Escherichia coli; settings: at 2 × MIC (4 μM), 24 h pre-formed biofilm, 16 h treatment in LB, 37 °C
Description: Bacterial biofilms play an important role in UTIs, being responsible for their persistence. Therefore, the eradication of mature biofilms is an extremely challenging task because high concentrations or doses of antibacterial agents are required. Here, the ability of HfBRI-25 to disrupt established biofilms was evaluated as a number of viable bacteria in biofilm using the MTT assay. According to our previous data, E. coli K12 SBS 1936 was chosen as a strong biofilm-producer that can form it in different media.
E. coli K12 SBS1936 was grown in LB broth overnight at 37 °C and diluted in the same media to obtain 1 × 10^6 CFU/mL. A total of 100 μL of bacterial suspension was added to each well of the 96-well polystyrene plate and grown at 32 °C and 120 rpm for 24 h. The wells were washed twice with sterile water to remove non-adherent cells. In parallel, 100 μL of peptide or ciprofloxacin solutions, serially diluted in LB medium using a separate 96-well polystyrene plate, were added to each well with pre-formed biofilm and incubated at 37 °C and 180 rpm for 16 h. Biofilm viability was assessed by using the MTT reagent (Sigma). […] Absorbance of each well was measured at 570 nm. Bacterial survival was calculated as a percentage relative to samples without antimicrobial agent. […]

[3] = 25% human serum in PBS pH 7.4, 37 °C; for a/b (%), ratio of the peptide forms in serum: RP-HPLC, ratio estimated from MALDI-TOF MS, two independent experiments

## CC[C@H](C)[C@@H]1NC(=O)[C@H](Cc2c[nH]c3ccccc23)NC(=O)[C@H](C(C)C)NC(=O)[C@@H]2CSSC[C@H](NC(=O)[C@H](CCCNC(=N)N)NC(=O)[C@H](CCCNC(=N)N)NC(=O)[C@H](C(C)C)NC(=O)[C@H](CCCNC(=N)N)NC(=O)[C@H](CCCNC(=N)N)NC(=O)CNC(=O)[C@H](CC(N)=O)NC(=O)[C@H](C(C)C)NC(=O)[C@H](CO)NC1=O)C(=O)N[C@@H](Cc1c[nH]c3ccccc13)C(=O)NCC(=O)N[C@@H](CO)C(=O)NCC(=O)N[C@H](C(=O)O)CSSC[C@H](NC(=O)CNC(=O)[C@H](CCCNC(=N)N)NC(=O)[C@@H]1CCCN1C(=O)[C@@H](N)CO)C(=O)N[C@@H](Cc1ccccc1)C(=O)N2 [HfBRI-25] (H-SPRGCFCVWISVNGRRVRRCWGSGC-OH; disulfide 5-25, 7-20; N-terminus and C-terminus assumed)
[1]
  Hemolytic effect on human red blood cells: absence of hemolytic and cytotoxic properties
[2]
  Bacterial viability inside established biofilm: minimal residual bacterial viability
[3]; after 1 h of incubation
  Part of the peptide converted into 23-residue form b: More than half
[3]; after 24 h, RP-HPLC peak area, mean of two independent experiments
  Two active forms (a/b) remained intact in serum: more than 80%
[3]; time 1 h
  a/b (%), ratio of the peptide forms in serum: 39%
[3]; time 3 h
  a/b (%), ratio of the peptide forms in serum: 6%
[3]; time 24 h
  a/b (%), ratio of the peptide forms in serum: 0%
